Starred links: 1 amine or outer side, 2 acyl side, 3 side chain; linkers in the order of their positions; H or OH if unused. Positions of bridges follow the written chain, without caps; N, C: chain ends. Non-standard residues stand in square brackets, D forms with d. Residues, ends and D or L forms follow the SMILES beside them. TATA = O=C(CC[*:1])N1CN(C(=O)CC[*:2])CN(C(=O)CC[*:3])C1; tBuAla = CC(C)(C)C[C@H](N)C(=O)O; Nle = CCCC[C@H](N)C(=O)O
How the values were obtained:
CD137 = assay: Cross-species binding of the CD137 Bicycle; parameters: species or system human and monkey
Nectin-4 = assay: Cross-species binding of the Nectin-4 Bicycle; parameters: species or system mouse, rat, monkey, and human

| Structure (SMILES) | species cross-reactivity of binding to CD137 (CD137) | species cross-reactivity of binding to Nectin-4 (Nectin-4) |
| --- | --- | --- |
| CCCC[C@@H]1NC(=O)[C@H](Cc2ccc(O)cc2)NC(=O)[C@@H]2CCCN2C(=O)[C@H](CC(=O)O)NC(=O)[C@H](C)NC(=O)[C@H](Cc2ccccc2)NC(=O)[C@@H]2CSCCC(=O)N3CN(CN(C3)C(=O)CCSC[C@@H](C(=O)N[C@@H](C)C(N)=O)NC1=O)C(=O)CCSC[C@H](NC(C)=O)C(=O)N[C@@H](CC(C)(C)C)C(=O)N1CCC[C@H]1C(=O)N[C@@H](CCC(=O)O)C(=O)N[C@H](CCCCN)C(=O)N1CCC[C@H]1C(=O)N[C@@H](Cc1ccc(O)cc1)C(=O)N2 [BCY8928] (Ac-C[tBuAla]PE[dK]PYCFADPY[Nle]CA-NH2; linker 1-8-15 via TATA) | binds only to human and monkey CD137 | – |
| CSCC[C@@H]1NC(=O)[C@@H]2CSCCC(=O)N3CN(CN(C3)C(=O)CCSC[C@H](N)C(=O)N3CCC[C@H]3C(=O)N[C@@H](Cc3cccc4ccccc34)C(=O)N[C@H](CC(=O)O)C(=O)N2)C(=O)CCSC[C@@H](C(N)=O)NC(=O)[C@H](Cc2c[nH]c3ccccc23)NC(=O)[C@@H]2C[C@@H](O)CN2C(=O)[C@@H]2CCCN2C(=O)[C@H]([C@@H](C)O)NC(=O)[C@H](CO)NC(=O)[C@H](Cc2c[nH]c3ccccc23)NC(=O)[C@H](CC(=O)O)NC(=O)[C@H](CCCCNC(=N)N)NC1=O [BCY8116] | – | binds to mouse, rat, monkey, and human Nectin-4 |
